Patent publication US5380746A, “Bis-(1H-indol-3-YL)-maleinimide derivatives, processes for the preparation thereof and pharmaceutical compositions containing them” (Goedecke Aktiengesellschaft, priority 1989, dated 1995)

Key:
Assay type in all cases: biochemical
protein kinase C = assay: enzyme assay of protein kinase C; settings: read-out: 50% inhibition at a concentration of, enzyme assay of protein kinase C
A-kinase = A-kinase (Homo sapiens, UniProt P17612); assay: inhibition of the A-kinase; settings: read-out: IC values of the inhibition of the A-kinase
G-kinase = target: T1, G-kinase (Homo sapiens, UniProt Q13976); assay: inhibition of the G-kinase; settings: read-out: IC values of the inhibition of the G-kinase
T1 sequence (Q13976 1-671): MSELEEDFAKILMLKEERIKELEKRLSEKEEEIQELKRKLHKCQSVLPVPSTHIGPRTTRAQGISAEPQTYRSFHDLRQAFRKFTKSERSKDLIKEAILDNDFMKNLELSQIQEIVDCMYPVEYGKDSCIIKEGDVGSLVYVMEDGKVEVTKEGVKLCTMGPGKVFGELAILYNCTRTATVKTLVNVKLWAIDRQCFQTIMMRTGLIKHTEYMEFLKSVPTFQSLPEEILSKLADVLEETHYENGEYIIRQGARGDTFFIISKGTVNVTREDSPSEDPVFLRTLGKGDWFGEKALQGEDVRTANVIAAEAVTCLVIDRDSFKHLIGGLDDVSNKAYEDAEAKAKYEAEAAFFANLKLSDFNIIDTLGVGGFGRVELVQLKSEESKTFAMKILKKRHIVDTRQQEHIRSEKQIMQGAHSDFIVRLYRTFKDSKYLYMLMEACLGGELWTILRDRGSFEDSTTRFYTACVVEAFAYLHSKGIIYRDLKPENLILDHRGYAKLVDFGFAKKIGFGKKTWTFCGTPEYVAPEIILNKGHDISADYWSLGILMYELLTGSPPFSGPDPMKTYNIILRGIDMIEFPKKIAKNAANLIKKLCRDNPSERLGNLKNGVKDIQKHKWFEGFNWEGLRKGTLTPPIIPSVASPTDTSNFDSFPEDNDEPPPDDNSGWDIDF

MLC-kinase = assay: inhibition of the MLC-kinase; settings: read-out: IC values of the inhibition of the MLC-kinase

Which results are given for `Cn1cc(C2=C(c3c[nH]c4ccccc34)C(=O)NC2=O)c2ccccc21` [Example 1, 2-(1H-Indol-3-yl)-3-(1-methyl-1H-indol-3-yl)maleinimide]?
IC50 (protein kinase C): 0.14 µM; IC50 (A-kinase): 77 µM; IC50 (G-kinase): 15 µM; IC50 (MLC-kinase): 4.5 µM
